Measured values: paper PMC9596378, “Discovery and molecular basis of subtype-selective cyclophilin inhibitors” (Nature Chemical Biology, 2022)
pIC50: −log10 of the molar value. Values joined by “and” are separate entries in the source; they are usually repeats but may differ in a detail not shown here. Equal entries are not always repeated.

How the values were obtained:
Assay in all cases: Chymotrypsin coupled prolyl-isomerase assay
Assay type in all cases: biochemical
CypA = biological target: T1, CypA (Homo sapiens, UniProt P62937); details: for prolyl-isomerase activity (raw dose-response value): CypA, in s^-1
T1 construct: PPIA (UniProtKB Entry P62937: residues 1–165); made in house; host or cells: E. coli BL21(DE3)
T1 sequence (P62937 whole entry, the tested form may be a part): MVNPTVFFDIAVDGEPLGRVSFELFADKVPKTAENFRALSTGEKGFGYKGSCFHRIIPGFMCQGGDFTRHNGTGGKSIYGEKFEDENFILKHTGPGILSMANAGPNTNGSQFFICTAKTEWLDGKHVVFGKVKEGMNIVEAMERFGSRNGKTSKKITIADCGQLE
Procedure: (§1) Adapting a previously described protocol, with an Agilent Bravo Velocity 11 with a 384ST head, 90 µL assay buffer (25 mM HEPES pH 7.3, 100 mM NaCl, 0.01% Triton X-100) containing 5.28 nM cyclophilin was added into a flat, clear-bottom, black 384-well plate pre-chilled in a Corning CoolBox at 2–3 °C. Five microliters of compound pre-dissolved in 5% DMSO/assay buffer was then added to appropriate wells and incubated at 2–3 °C for 5 min. Five microliters of 0.5 mM α-chymotrypsin from bovine pancreas (Type II, lyophilized powder, Millipore-Sigma) in 20% 1 mM HCl/Assay Buffer was then added to each well and incubated at 2–3 °C for 5 min. The plate was then quickly transferred to a FLIPR Tetra High-Throughput Cellular Screening System (Molecular Devices). Using the internal liquid handling system of the FLIPR, 1 µL 0.5 mM Suc-AAPF-AMC (Chymotrypsin Substrate II, Millipore-Sigma) dissolved in 0.55 M LiCl/2,2,2-trifluoroethanol was added to each well, which was then mixed for 5 s, followed by immediate fluorescence measurements every 1 s for 330 s using a 360–380 nm excitation LED module and a 400–460 nm emission filter. Final concentrations of the plate include 5 nM cyclophilin, 0.25% DMSO, 25 µM α-chymotrypsin, 5 µM Suc-AAPF-AMC. Raw fluorescence data was analyzed by non-linear regression analysis with Prism v.9 by fitting one-phase association curves to each well. […] Rate constants calculated for each well (s^−1) were then normalized to substrate only (no prolyl-isomerase) and enzyme + substrate only controls. IC50 values were calculated as the value at which 50% inhibition was achieved on the non-linear regression fitted curve of each compound.

CypC = biological target: T2, CypC (Homo sapiens, UniProt P45877); details: for prolyl-isomerase activity (raw dose-response value): CypC, in s^-1
T2 construct: PPIC (UniProtKB Entry P45877: residues 24–212); host or cells: E. coli BL21(DE3)
T2 sequence (P45877 24-212): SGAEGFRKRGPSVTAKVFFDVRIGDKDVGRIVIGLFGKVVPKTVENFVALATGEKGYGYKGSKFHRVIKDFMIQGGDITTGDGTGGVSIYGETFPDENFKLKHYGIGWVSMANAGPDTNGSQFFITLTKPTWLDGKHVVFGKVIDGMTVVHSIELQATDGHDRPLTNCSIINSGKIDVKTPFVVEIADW
Procedure: as §1

CypE = biological target: T3, CypE (Homo sapiens, UniProt Q9UNP9); details: for prolyl-isomerase activity (raw dose-response value): CypE, in s^-1
T3 construct: PPIE (UniProtKB Entry Q9UNP9: residues 131–301); host or cells: E. coli BL21(DE3)
T3 sequence (Q9UNP9 131-301): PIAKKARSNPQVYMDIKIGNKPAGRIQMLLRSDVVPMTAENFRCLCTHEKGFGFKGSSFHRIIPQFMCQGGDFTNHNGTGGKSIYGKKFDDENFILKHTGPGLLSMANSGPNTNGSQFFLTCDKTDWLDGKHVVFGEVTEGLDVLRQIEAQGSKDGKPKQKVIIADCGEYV
Procedure: as §1

CypG = biological target: T4, CypG (Homo sapiens, UniProt Q13427); details: for prolyl-isomerase activity (raw dose-response value): CypG, in s^-1
T4 construct: PPIG (UniProtKB Entry Q13427: residues 1–179); His6 with thrombin site (pET28a LIC leader) (N); host or cells: E. coli BL21(DE3)
T4 sequence (Q13427 1-179): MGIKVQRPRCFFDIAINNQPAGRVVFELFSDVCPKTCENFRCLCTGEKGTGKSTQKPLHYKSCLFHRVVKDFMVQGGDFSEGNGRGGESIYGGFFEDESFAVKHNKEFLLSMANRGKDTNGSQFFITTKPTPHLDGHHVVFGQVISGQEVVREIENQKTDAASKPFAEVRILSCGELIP
Procedure: as §1

CypH = biological target: T5, CypH (Homo sapiens, UniProt O43447); details: for prolyl-isomerase activity (raw dose-response value): CypH
T5 construct: PPIH (UniProtKB Entry O43447: residues 1–177); His6 with TEV site (2BT vector leader) (N); made in house; host or cells: E. coli BL21(DE3)
T5 sequence (O43447 whole entry, the tested form may be a part): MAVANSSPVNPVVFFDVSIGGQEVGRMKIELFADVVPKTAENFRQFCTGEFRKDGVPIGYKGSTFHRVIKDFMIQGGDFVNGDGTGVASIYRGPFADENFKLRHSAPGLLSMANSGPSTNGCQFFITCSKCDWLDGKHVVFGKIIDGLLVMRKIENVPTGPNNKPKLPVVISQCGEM
Procedure: as §1

## NCCOCCNC(=O)[C@@H]1CCNC(=O)/C=C/C(=O)N2CCC[C@](Cc3ccccc3)(C2)C(=O)N[C@@H](Cc2ccc(C(=O)c3ccccc3)cc2)C(=O)NCc2ccccc2CC(=O)N1 [Compound B1]
CypA; dose 0.00114312 µM
  prolyl-isomerase activity (raw dose-response value): 0.07489 and 0.0818 and 0.1208
CypA; dose 0.00342935 µM
  prolyl-isomerase activity (raw dose-response value): 0.107 and 0.09816 and 0.1302
CypA; dose 0.0102881 µM
  prolyl-isomerase activity (raw dose-response value): 0.09417 and 0.08156 and 0.09814
CypA; dose 0.0308642 µM
  prolyl-isomerase activity (raw dose-response value): 0.0846 and 0.08188 and 0.08679
CypA; dose 0.0925926 µM
  prolyl-isomerase activity (raw dose-response value): 0.06244 and 0.05553 and 0.05478
CypA; dose 0.277778 µM
  prolyl-isomerase activity (raw dose-response value): 0.04513 and 0.03865 and 0.03913
CypA; dose 0.833333 µM
  prolyl-isomerase activity (raw dose-response value): 0.02761 and 0.02378 and 0.02924
CypA; dose 2.5 µM
  prolyl-isomerase activity (raw dose-response value): 0.01703 and 0.01931 and 0.02247
CypA; wild-type CypA, read-out: Wild-Type Cyclophilin Prolyl Isomerase Inhibition IC50 Values, CypA
  pIC50: 7.15
CypC; dose 0.00244141 µM
  prolyl-isomerase activity (raw dose-response value): 0.04561 and 0.0417 and 0.04308
CypC; dose 0.00488281 µM
  prolyl-isomerase activity (raw dose-response value): 0.04435 and 0.04111 and 0.04239
CypC; dose 0.00976562 µM
  prolyl-isomerase activity (raw dose-response value): 0.04356 and 0.0401 and 0.04072
CypC; dose 0.0195312 µM
  prolyl-isomerase activity (raw dose-response value): 0.03963 and 0.03695 and 0.03646
CypC; dose 0.0390625 µM
  prolyl-isomerase activity (raw dose-response value): 0.035 and 0.03188 and 0.03161
CypC; dose 0.078125 µM
  prolyl-isomerase activity (raw dose-response value): 0.02847 and 0.0253 and 0.02646
CypC; dose 0.15625 µM
  prolyl-isomerase activity (raw dose-response value): 0.02267 and 0.02159 and 0.02162
CypC; dose 0.3125 µM
  prolyl-isomerase activity (raw dose-response value): 0.01917 and 0.0189 and 0.01739
CypC; dose 0.625 µM
  prolyl-isomerase activity (raw dose-response value): 0.01677 and 0.01627 and 0.01518
CypC; dose 1.25 µM
  prolyl-isomerase activity (raw dose-response value): 0.01345 and 0.01256 and 0.01367
CypC; dose 2.5 µM
  prolyl-isomerase activity (raw dose-response value): 0.009144 and 0.00999 and 0.01009
CypC; wild-type CypC, read-out: Wild-Type Cyclophilin Prolyl Isomerase Inhibition IC50 Values, CypC
  pIC50: 7.10
CypE; dose 0.00244141 µM
  prolyl-isomerase activity (raw dose-response value): 0.1145 and 0.1032 and 0.1074
CypE; dose 0.00488281 µM
  prolyl-isomerase activity (raw dose-response value): 0.1194 and 0.1024 and 0.1063
CypE; dose 0.00976562 µM
  prolyl-isomerase activity (raw dose-response value): 0.1019 and 0.09727 and 0.09617
CypE; dose 0.0195312 µM
  prolyl-isomerase activity (raw dose-response value): 0.09053 and 0.08335 and 0.08401
CypE; dose 0.0390625 µM
  prolyl-isomerase activity (raw dose-response value): 0.08777 and 0.07578 and 0.07602
CypE; dose 0.078125 µM
  prolyl-isomerase activity (raw dose-response value): 0.06552 and 0.06127 and 0.05879
CypE; dose 0.15625 µM
  prolyl-isomerase activity (raw dose-response value): 0.05184 and 0.04744 and 0.04506
CypE; dose 0.3125 µM
  prolyl-isomerase activity (raw dose-response value): 0.04144 and 0.0397 and 0.03654
CypE; dose 0.625 µM
  prolyl-isomerase activity (raw dose-response value): 0.03167 and 0.02791 and 0.02701
CypE; dose 1.25 µM
  prolyl-isomerase activity (raw dose-response value): 0.02174 and 0.02048 and 0.01944
CypE; dose 2.5 µM
  prolyl-isomerase activity (raw dose-response value): 0.0149 and 0.01299 and 0.01222
CypE; wild-type CypE, read-out: Wild-Type Cyclophilin Prolyl Isomerase Inhibition IC50 Values, CypE
  pIC50: 7.00
CypG; dose 6.125 µM
  prolyl-isomerase activity (raw dose-response value): 0.0775 and 0.0774 and 0.07959
CypG; dose 12.5 µM
  prolyl-isomerase activity (raw dose-response value): 0.07476 and 0.07359 and 0.07437
CypG; dose 25 µM
  prolyl-isomerase activity (raw dose-response value): 0.06566 and 0.06625 and 0.06165
CypG; dose 50 µM
  prolyl-isomerase activity (raw dose-response value): 0.05369 and 0.05651 and 0.05019
CypG; dose 100 µM
  prolyl-isomerase activity (raw dose-response value): 0.03357 and 0.03853 and 0.03559
CypG; wild-type CypG, read-out: Wild-Type Cyclophilin Prolyl Isomerase Inhibition IC50 Values, CypG
  pIC50: 4.15
CypH; dose 0.0228624 µM
  prolyl-isomerase activity (raw dose-response value): 0.05823 and 0.06198 and 0.07295
CypH; dose 0.0685871 µM
  prolyl-isomerase activity (raw dose-response value): 0.0659 and 0.06156 and 0.06865
CypH; dose 0.205761 µM
  prolyl-isomerase activity (raw dose-response value): 0.06027 and 0.0617 and 0.06475
CypH; dose 0.617284 µM
  prolyl-isomerase activity (raw dose-response value): 0.05924 and 0.06278 and 0.06988
CypH; dose 1.85185 µM
  prolyl-isomerase activity (raw dose-response value): 0.05446 and 0.06201 and 0.06094
CypH; dose 5.55556 µM
  prolyl-isomerase activity (raw dose-response value): 0.05231 and 0.05643 and 0.05555
CypH; dose 16.6667 µM
  prolyl-isomerase activity (raw dose-response value): 0.04539 and 0.04092 and 0.04707
CypH; dose 50 µM
  prolyl-isomerase activity (raw dose-response value): 0.02854 and 0.02769 and 0.02761
CypH; wild-type CypH, read-out: Wild-Type Cyclophilin Prolyl Isomerase Inhibition IC50 Values, CypH
  pIC50: 4.70
